Assay results: ChEMBL document CHEMBL1201862, “PubChem BioAssay data set” (2004)
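48-hour exposure; five concentrations; linearly interpolated endpoints. GI50 = concentration required for 50% inhibition of growth.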 Calls of active or inactive are those of the source. Cut-off read from the data, not from the text of the source: active = GI50 up to about 1.1 µM and inactive = higher.

Key:
Assay in all cases: DTP human tumour cell line panel, 48 h
[1] = system: UACC-257
[2] = system: NCI/ADR-RES
[3] = system: NCI-H522
[4] = system: 786-0
[5] = system: CCRF-CEM
[6] = system: SK-OV-3
[7] = system: HT-29
[8] = system: UACC-62
[9] = system: Malme-3M
[10] = system: U-251
[11] = system: A498
[12] = system: SK-MEL-28
[13] = system: TK-10
[14] = system: HL-60
[15] = system: MDA-MB-435
[16] = system: SW-620
[17] = system: BT-549
[18] = system: SF-539
[19] = system: RPMI-8226
[20] = system: SK-MEL-2
[21] = system: SK-MEL-5
[22] = system: MDA-MB-231
[23] = system: MOLT-4
[24] = system: KM12
[25] = system: PC-3
[26] = system: LOX IMVI
[27] = system: HCT-116
[28] = system: EKVX
[29] = system: UO-31
[30] = system: K562
[31] = system: HCT-15
[32] = system: M14
[33] = system: A549
[34] = system: CAKI-1
[35] = system: HOP-62
[36] = system: NCI-H226
[37] = system: SF-295
[38] = system: IGROV-1
[39] = system: OVCAR-8
[40] = system: Hs-578T
[41] = system: SNB-75
[42] = system: MCF7
[43] = system: COLO 205
[44] = system: NCI-H460
[45] = system: SF-268
[46] = system: RXF 393
[47] = system: SNB-19
[48] = system: OVCAR-4
[49] = system: SR
[50] = system: OVCAR-5
[51] = system: OVCAR-3

**Q.** What does the source list for `COc1ccccc1N=C(S)Nc1ccccn1`?
**A.** GI50 [1]: > 100 µM (inactive); GI50 [2]: > 100 µM (inactive); GI50 [3]: 43.4 µM (inactive); GI50 [4]: 56.5 µM (inactive); GI50 [5]: > 100 µM (inactive); GI50 [6]: > 100 µM (inactive); GI50 [7]: > 100 µM (inactive); GI50 [8]: > 100 µM (inactive); GI50 [9]: > 100 µM (inactive); GI50 [10]: 58.5 µM (inactive); GI50 [11]: > 100 µM (inactive); GI50 [12]: > 100 µM (inactive); GI50 [13]: 64.1 µM (inactive); GI50 [14]: > 100 µM (inactive); GI50 [15]: > 100 µM (inactive); GI50 [16]: > 100 µM (inactive); GI50 [17]: > 100 µM (inactive); GI50 [18]: 67.9 µM (inactive); GI50 [19]: > 100 µM (inactive); GI50 [20]: > 100 µM (inactive); GI50 [21]: > 100 µM (inactive); GI50 [22]: > 100 µM (inactive); GI50 [23]: > 100 µM (inactive); GI50 [24]: > 100 µM (inactive); GI50 [25]: > 100 µM (inactive); GI50 [26]: > 100 µM (inactive); GI50 [27]: > 100 µM (inactive); GI50 [28]: 55 µM (inactive); GI50 [29]: > 100 µM (inactive); GI50 [30]: > 100 µM (inactive); GI50 [31]: > 100 µM; GI50 [32]: > 100 µM (inactive); GI50 [33]: > 100 µM (inactive); GI50 [34]: > 100 µM (inactive); GI50 [35]: 63.4 µM (inactive); GI50 [36]: > 100 µM (inactive); GI50 [37]: 66.2 µM (inactive); GI50 [38]: > 100 µM (inactive); GI50 [39]: 99.8 µM (inactive); GI50 [40]: 84.7 µM (inactive); GI50 [41]: 36.7 µM (inactive); GI50 [42]: > 100 µM (inactive); GI50 [43]: > 100 µM (inactive); GI50 [44]: > 100 µM (inactive); GI50 [45]: 45.6 µM (inactive); GI50 [46]: 59 µM (inactive); GI50 [47]: 73.8 µM (inactive); GI50 [48]: > 100 µM (inactive); GI50 [49]: > 100 µM (inactive); GI50 [50]: > 100 µM (inactive); GI50 [51]: > 100 µM (inactive)
